The supplement of paper PMC10307832

Experiments:
Assay in all cases: relative viability (nuclei count vs DMSO), 5 days (fraction); higher = more cells survive
[1] = compound: Nc1ccccc1NC(=O)c1ccc(CNC(=O)OCc2cccnc2)cc1 [Entinostat] + NC(=O)Nc1cc(-c2cccc(F)c2)sc1C(=O)N[C@H]1CCCNC1 [AZD7762] (partner 0.2 µM)
Summary of the method: (§1)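 Lung cancer cell lines were seeded in 1536-well plates and dosed by pin tool the next day, with either a single drug or a fixed anchor-drug dose combined with five library-drug doses (not always all listed) spaced in √10 steps. Five days later, one step fixed the cells and stained their nuclei (final 0.05% Triton X-100, 1% formaldehyde, 1 ug/ml Hoechst), and nuclei were counted on 4× images. Relative viability is the nuclei count in treated wells divided by the count in vehicle wells, and each value is the median of duplicate plates.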

[2] = compound: CN1CCC(CNc2ccc3ncc(-c4cccc(OC(F)(F)F)c4)n3n2)CC1 [SGI-1776] + COc1cc2c(Oc3ccc(NC(=O)C4(C(=O)Nc5ccc(F)cc5)CC4)cc3F)ccnc2cc1OCCCN1CCOCC1 [Foretinib] (partner 0.25 µM)
Summary of the method: as §1

[3] = compound: C1COCCN1C2=NC(=NC3=C2OC4=C3C=CC=N4)C5=CC(=CC=C5)NC(=O)C6=CN=C(C=C6)N + COc1cc2c(Oc3ccc(NC(=O)C4(C(=O)Nc5ccc(F)cc5)CC4)cc3F)ccnc2cc1OCCCN1CCOCC1 [Foretinib] (partner 0.25 µM)
Summary of the method: as §1

[4] = compound: CN1CCC(CNc2ccc3ncc(-c4cccc(OC(F)(F)F)c4)n3n2)CC1 [SGI-1776] + CCNC(=O)c1noc(-c2cc(C(C)C)c(O)cc2O)c1-c1ccc(CN2CCOCC2)cc1 [Luminespib] (partner 0.01 µM)
Summary of the method: as §1

Cell Line	relative viability ([1]; first compound 0.02 µM)	relative viability ([1]; first compound 0.06325 µM)	relative viability ([1]; first compound 0.2 µM)	relative viability ([1]; first compound 0.6325 µM)	relative viability ([1]; first compound 2 µM)	relative viability ([2]; first compound 0.08 µM)	relative viability ([2]; first compound 0.8 µM)	relative viability ([2]; first compound 2.53 µM)	relative viability ([2]; first compound 8 µM)	relative viability ([3]; first compound 0.02 µM)	relative viability ([3]; first compound 0.06325 µM)	relative viability ([3]; first compound 0.2 µM)	relative viability ([3]; first compound 0.6325 µM)	relative viability ([3]; first compound 2 µM)	relative viability ([4]; first compound 0.08 µM)	relative viability ([4]; first compound 0.8 µM)	relative viability ([4]; first compound 2.53 µM)	relative viability ([4]; first compound 8 µM)
LOU-NH91	0.729	0.807	0.735	0.664	0.653	1.06	0.893	0.926	0.762	0.946	0.952	0.901	0.925	0.845	0.366	0.345	0.367	0.305
BEN	0.771	0.714	0.685	0.602	0.464	0.72	0.623	0.472	0.552	0.681	0.609	0.594	0.451	0.72	0.434	0.39	1.1	0.475
NCI-H2085	0.965	0.93	0.909	0.683	0.692	0.864	0.864	0.852	0.715	0.998	0.998	0.775	0.938	0.604	0.481	0.44	0.513	0.333
LCLC-103H	0.818	0.866	0.719	0.474	0.432	0.88	0.705	0.748	0.637	0.872	0.777	0.789	0.643	0.474	0.965	0.88	0.948	0.729
ABC-1	0.803	0.727	0.951	0.86	0.59	1.06	0.974	0.984	0.64	1.09	1.07	0.996	1.04	0.884	0.308	0.577	0.52	0.51
NCI-H650	1.12	0.95	1.08	0.823	0.325	1.09	1.03	1.02	0.936	1	1.01	1.06	1.03	0.919	0.863	0.734	0.9	0.858
EPLC-272H	0.339	0.224	0.141	0.137	0.14	0.82	0.66	0.768	0.528	0.648	0.776	0.66	0.542	0.476	0.402	0.536	0.501	0.2
EKVX	0.763	0.645	0.645	0.416	0.265	1.36	0.837	0.863	0.749	0.97	1.01	0.773	0.751	0.339	0.868	0.937	0.875	0.863
NCI-H1666	1.07	0.918	0.812	0.835	0.519	0.975	0.956	0.948	0.914	1	0.89	0.774	0.85	0.672	1.03	0.995	0.972	0.877
HCC-15	1.19	1.2	1.26	0.774	0.457	0.989	1.07	1.04	0.824	1.05	1.15	1.06	0.947	0.677	0.353	0.34	0.325	0.186
LCLC-97TM1	0.246	0.283	0.283	0.281	0.243	0.932	0.952	0.945	0.829	0.974	0.964	0.931	1.04	0.825	0.947	0.847	0.746	0.742
NCI-H2347	0.741	0.755	0.576	0.378	0.255	0.836	0.862	0.531	0.84	1.09	0.962	0.861	1.07	0.657	0.344	0.558	0.324	0.539
NCI-H1915	0.713	0.694	0.716	0.526	0.286	1.09	1.03	1.11	1.09	1.11	1.18	1.11	1.13	0.856	0.778	0.843	0.75	0.684
NCI-H647	0.49	0.557	0.55	0.186	0.0556	1.22	1.24	1.18	1.15	1.17	1.16	1.13	1.14	0.667	0.263	0.198	0.192	0.144
NCI-H2087	1.22	0.975	1.04	1.03	0.355	1.1	1.17	0.843	0.376	1.03	1.28	1.05	0.962	0.741	0.138	0.212	0.183	0.17
PC-3 [JPC-3]	1.06	0.804	0.738	0.522	0.231	1.03	1.01	1.08	0.978	1.14	1.05	0.991	1.07	0.772	0.739	0.573	0.741	0.628
HOP-62	0.535	0.711	0.545	0.222	0.15	1.2	1.13	1.03	1.1	1.12	1.2	1.12	1.02	0.568	0.835	0.93	0.941	0.89
NCI-H2126	0.936	1.03	1.01	0.737	0.495	1.29	1.27	1.44	1.06	1.19	1.24	1.1	0.977	1.04	0.933	0.972	0.947	0.774

Cell Line	relative viability ([1]; first compound 0.02 µM)	relative viability ([1]; first compound 0.06325 µM)	relative viability ([1]; first compound 0.2 µM)	relative viability ([1]; first compound 0.6325 µM)	relative viability ([1]; first compound 2 µM)	relative viability ([2]; first compound 0.08 µM)	relative viability ([2]; first compound 0.8 µM)	relative viability ([2]; first compound 2.53 µM)	relative viability ([2]; first compound 8 µM)	relative viability ([3]; first compound 0.02 µM)	relative viability ([3]; first compound 0.06325 µM)	relative viability ([3]; first compound 0.2 µM)	relative viability ([3]; first compound 0.6325 µM)	relative viability ([3]; first compound 2 µM)	relative viability ([4]; first compound 0.08 µM)	relative viability ([4]; first compound 0.8 µM)	relative viability ([4]; first compound 2.53 µM)	relative viability ([4]; first compound 8 µM)
NCI-H1793	0.508	0.643	0.302	0.23	0.302	0.953	0.597	0.5	0.184	0.564	0.843	0.59	0.548	0.391	0.217	0.163	0.286	0.161
RERF-LC-KJ	1.12	1.07	0.748	0.707	0.329	0.879	0.894	0.879	0.78	0.879	0.953	0.888	0.883	0.624	1.23	1.17	0.904	0.688
H3255	1	0.901	0.756	0.539	0.333	1.02	0.994	0.801	0.864	0.985	0.97	0.865	0.754	0.718	0.988	1.1	0.894	0.665
EMC-BAC-2	1.17	0.987	0.881	0.441	0.457	1.02	0.99	1.11	0.846	0.991	1.07	1.01	0.902	0.766	1.2	1.27	1.26	1.11
SW 900	0.723	0.699	0.726	0.488	0.268	1.05	1.12	0.9	0.817	0.944	0.93	0.751	1.5	0.735	0.178	0.173	0.208	0.166
CAL-12T	0.775	0.578	0.67	0.642	0.464	1.21	1.08	1.25	0.577	1.12	1.49	1.19	1.21	0.941	0.331	0.394	0.452	0.519
NCI-H1437	1.12	0.947	0.781	0.396	0.369	1.23	1.29	1.37	1.17	1.31	1.29	1.2	1.27	0.856	1.12	1.19	1.22	1.12
PC-14	0.577	0.364	0.397	0.165	0.0725	1.03	0.959	0.952	0.672	0.965	1.17	1.04	0.977	0.755	0.154	0.138	0.126	0.129
LK-2	0.481	0.623	0.5	0.345	0.21	1.26	1.23	1.35	0.682	1.34	1.37	1.35	0.797	0.598	0.17	0.188	0.257	0.159
NCI-H1651	0.452	0.48	0.377	0.394	0.245	0.787	0.75	0.985	0.794	0.784	0.786	0.723	0.821	0.551	0.823	0.977	0.784	0.642
LC-2-ad	0.884	0.853	0.759	0.497	0.257	0.999	0.922	0.934	0.685	0.858	0.984	0.977	1.06	0.9	0.983	1.09	1.06	0.769
NCI-H1734	0.5	0.476	0.364	0.259	0.244	0.786	0.913	0.927	0.483	0.825	0.948	0.695	0.804	0.563	0.193	0.201	0.19	0.163
NCI-H441	1.05	0.883	0.715	0.281	0.196	0.992	0.925	1.17	0.728	1.13	0.918	0.786	0.84	0.493	0.379	0.294	0.312	0.239
NCI-H727	0.598	0.667	0.624	0.646	0.776	0.988	0.971	0.926	0.671	0.945	0.807	0.82	0.865	0.676	0.408	0.337	0.311	0.253
NCI-H23	0.377	0.294	0.251	0.137	0.121	0.969	0.932	0.781	0.333	0.85	–	0.943	0.815	0.493	0.217	0.221	0.238	0.192
NCI-H1395	0.39	0.386	0.395	0.373	0.356	1.05	0.975	1.01	0.857	0.919	0.909	0.924	0.984	0.894	0.768	0.772	0.573	0.414
NCI-H596	1.19	1.11	1.14	0.817	0.829	0.808	0.748	0.79	1.05	1.13	0.813	0.893	0.709	0.616	0.975	0.934	0.798	0.941
